# Assay results as given in patent publication US9238631B2, “Radiolabeled amino acids for diagnostic imaging” (PIRAMAL IMAGING SA, priority 2011, dated 2016).
# Legend:
# H460 cells = assay: Retention of radioactivity in H460 cells (efflux); type: cell-based, human; details: 30 minute efflux period after 30 minutes loading
# Protocol: The retention of radioactivity in tumor cells was examined. Therefore. H460 cells were loaded with 0.25 MBq of the respective tracer for 30 minutes in PBS buffer, containing 0.1% BSA. After this uptake, the buffer was removed and the cells were washed with PBS. The cells were then reincubated with new PBS buffer, without radioactivity for up to 30 minutes. The release of activity into the supernatant as well as the retention of activity inside the cells was examined. It was discovered, that only a limited amount of activity was released into the supernatant during the 30 minute efflux period. More than 80% of the activity were retained inside the tumor cells during the 30 minute incubation under these efflux conditions.
# In addition, the retention of radioactivity in tumor cells was examined. Therefore. H460 cells were loaded with 0.25 MBq of [^18F]-41 for 30 minutes in PBS buffer, containing 0.1% BSA. After this uptake, the buffer was removed and the cells were washed with PBS. The cells were then reincubated with new PBS buffer without radioactivity for 30 min. The release of activity into the supernatant as well as the retention of activity inside the cells was determined. It was discovered, that only a limited amount of activity was released into the supernatant during the 30 minute efflux period. […]
# NCI-H460 tumor [1] = assay: In vivo biodistribution in NCI-H460 tumor bearing mice
# In short: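 Biodistribution of 18F-labeled compounds was assessed in female NMRI (nu/nu) mice bearing NCI-H460 tumors, established by inoculating 5×10^6 cells 8 to 10 days beforehand. Each mouse received 185 kBq of the fluorinated tracer; at least n=3 animals per time point were sacrificed, organs excised, and radioactivity quantified with a γ-counter.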
# NCI-H460 tumor [2] = assay: PET imaging in NCI-H460 tumor bearing nude-rats; type: in vivo; details: PET ROI analysis, 1 h p.i.
# In short: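 NCI-H460 cells were inoculated into the right flank of nude rats (RH-Foxn1 nu/nu) 8 to 10 days before imaging. PET images were acquired for 10 minutes at 60 min after injection of approximately 10 MBq tracer. Tumor, liver and kidney activity was derived by ROI analysis as %ID/g.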
# [3] = test system: NCI-H460 (human NSCLC) cells; assay: Time-dependent uptake and blocking of [^18F]-41 in NCI-H460 cells; type: cell-based; details: 0.25 MBq, 60 min incubation, approx. 100.000 cells
# Protocol: NCI-H460 (human NSCLC) cells, grown adherently in 48 well plates were used for these experiments. Approximately 100.000 cells were incubated in PBS-buffer containing 0.1% BSA with 0.25 MBq [^18F]-41 for up to 60 minutes. A time-dependent uptake was observed during the 60 min incubation period. Approximately 13% of applied dose was taken up by the cells during the 60 min incubation period (FIG. 6). For the blocking study [^18F]-41 was co-incubated with 1 mM 41 for 30 minutes. After this time, the cell bound radioactivity was determined.
# reactive lymph nodes = assay: PET uptake in inflammatory lesions (streptozotocin-induced reactive lymph nodes); type: in vivo, mice; details: dynamic PET 1 h, 3 days after streptozotocin
# Protocol: To test the specificity of compounds from the present invention, compound [^18F]-41 was examined in an animal model of reactive lymph nodes in comparison to the clinically commonly used PET tracer FDG. Therefore, female immunocompetent NMRI mice (10 weeks old) were injected with streptozotocin (500 μg/40 μL PBS) in the right hind limb to induce an inflammatory reaction in the right popliteal and additional lymph nodes. PET imaging studies were performed 3 days after Streptozotocin injection. PET images were acquired dynamically for 1 h after injection of approximately 5-10 MBq. After the imaging study, region-of-interest (ROI) analysis was performed in the popliteal, inguinal and iliacal lymph nodes. At least 3 animals were examined per tracer.
structure (smiles),measurement,setting,value
"N[C@@H](CCC(Cc1ccc(OC[18F])cc1)C(=O)O)C(=O)O (stereo partly drawn) [[^18F]-41, (2S)-2-amino-5-[4-(fluoromethoxy)benzyl]hexanedioic acid]",activity retained inside the tumor cells,H460 cells,More than 80%
same,Kidney (% ID/g at 1 h p.i.),NCI-H460 tumor [1]; 1 h p.i.,3.1 ± 0.4 % ID/g
same,Liver (% ID/g at 1 h p.i.),NCI-H460 tumor [1]; 1 h p.i.,0.3 ± 0.1 % ID/g
same,Pancreas (% ID/g at 1 h p.i.),NCI-H460 tumor [1]; 1 h p.i.,1.0 ± 0.5 % ID/g
same,Tumor (% ID/g at 1 h p.i.),NCI-H460 tumor [1]; 1 h p.i.,6.8 ± 1.3 % ID/g
same,Urine (% ID at 1 h p.i.),NCI-H460 tumor [1]; 1 h p.i.,69.3 ± 14.5 % ID
same,T/Blood,NCI-H460 tumor [1]; 1 h post injection,26.3
same,T/Muscle,NCI-H460 tumor [1]; 1 h post injection,90.6
same,tumor uptake and retention (summary statement),"NCI-H460 tumor [1]; mouse, in vivo",high tumor uptake and retention
same,Kidney (% ID/g at 1 h p.i.),NCI-H460 tumor [2],0.5 % ID/g
same,Liver (% ID/g at 1 h p.i.),NCI-H460 tumor [2],0.4 % ID/g
same,Tumor (Max % ID/g at 1 h p.i.),NCI-H460 tumor [2],3.7 % ID/g
same,Tumor (Mean % ID/g at 1 h p.i.),NCI-H460 tumor [2],1.6 % ID/g
same,uptake of applied dose by the cells,[3],Approximately 13 % of applied dose
same,initial uptake in the inflammatory lesions,reactive lymph nodes,reduced compared to FDG
same,time-course of activity in the reactive lymph nodes,reactive lymph nodes,wash-out of radioactivity
